This assay concerns BDF1 mice, P388 leukemia ip, median survival T/C. The assay is described as follows: NCI In Vivo Anticancer Drug Screen. Data for tumor model P388 Leukemia (intraperitoneal) in B6D2F1 (BDF1) mice. The conditions noted are these: endpoint: median survival time, higher = longer survival. The method, boiled down: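 In tumour-bearing mice, survival after compound treatment is set against the vehicle group and given as a quotient.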

The mark [1] stands for this setting: dose: 200.0 mg/kg/injection, schedule: Q04DX003 (ip), vehicle: Klucel (hydroxypropylcellulose) (HPC).
[2] abbreviates: dose: 400.0 mg/kg/injection, schedule: Q04DX003 (ip), vehicle: Klucel (hydroxypropylcellulose) (HPC).
Where [3] appears, read: dose: 12.5 mg/kg/injection, schedule: Q04DX003 (ip), vehicle: water.
Where [4] appears, read: dose: 50.0 mg/kg/injection, schedule: Q01DX009 (ip), vehicle: saline with Tween-80.
The mark [5] stands for this setting: dose: 100.0 mg/kg/injection, schedule: Q01DX009 (ip), vehicle: saline with Tween-80.
Where [6] appears, read: dose: 200.0 mg/kg/injection, schedule: Q01DX009 (ip), vehicle: saline with Tween-80.
Setting [7] is: dose: 400.0 mg/kg/injection, schedule: Q01DX009 (ip), vehicle: saline with Tween-80.
Where [8] appears, read: dose: 100.0 mg/kg/injection, schedule: Q04DX003 (ip), vehicle: saline with Tween-80.
Setting [9] is: dose: 200.0 mg/kg/injection, schedule: Q04DX003 (ip), vehicle: saline with Tween-80.

“And” between values parts separate entries of the source, which are not always exact repeats. Equal entries are not always repeated. Toxic doses and inconclusive results are not listed.

Regarding `CC(C)(C)C(=O)CC(=O)C(F)(F)C(F)(F)C(F)(F)F.CC(C)(C)C(=O)CC(=O)C(F)(F)C(F)(F)C(F)(F)F.CC(C)(C)C(=O)CC(=O)C(F)(F)C(F)(F)C(F)(F)F.[Fe]`, the T/C reads like this: (dose: 100.0 mg/kg/injection, schedule: Q01DX009 (ip), vehicle: Klucel (hydroxypropylcellulose) (HPC)) 97 % of control; (dose: 200.0 mg/kg/injection, schedule: Q01DX009 (ip), vehicle: Klucel (hydroxypropylcellulose) (HPC)) 114 % of control; (dose: 400.0 mg/kg/injection, schedule: Q01DX009 (ip), vehicle: Klucel (hydroxypropylcellulose) (HPC)) 97 % of control.
Consider `CC(C)CC(C(=O)NC1C(=O)NC(Cc2c[nH]c3ccccc23)C(=O)N/C=C\c2ccc(cc2)OC1C(C)C)N(C)C` (centres undefined), for which the T/C is 100 % of control (dose: 0.1 mg/kg/injection, schedule: Q01DX010 (ip), vehicle: alcohol); 101 % of control (dose: 0.2 mg/kg/injection, schedule: Q01DX010 (ip), vehicle: alcohol); 123 % of control (dose: 0.8 mg/kg/injection, schedule: Q01DX010 (ip), vehicle: alcohol); 110 % of control (dose: 1.0 mg/kg/injection, schedule: Q01DX009 (ip), vehicle: steriod suspending solution); 115 % of control (dose: 2.0 mg/kg/injection, schedule: Q01DX009 (ip), vehicle: steriod suspending solution); 105 % of control (dose: 4.0 mg/kg/injection, schedule: Q01DX009 (ip), vehicle: steriod suspending solution). In addition, for the setting “dose: 8.0 mg/kg/injection, schedule: Q01DX009 (ip), vehicle: steriod suspending solution”, the T/C is 100 % of control.
Turning to `CCOCCC(=O)O`, the T/C by setting is: (dose: 100.0 mg/kg/injection, schedule: Q04DX003 (ip), vehicle: saline) 104 % of control; (dose: 200.0 mg/kg/injection, schedule: Q04DX003 (ip), vehicle: saline) 109 % of control; (dose: 400.0 mg/kg/injection, schedule: Q04DX003 (ip), vehicle: saline) 90 % of control.
For the compound `O=S(=O)(F)c1cccc(C[P+](c2ccccc2)(c2ccccc2)c2ccccc2)c1`, the T/C reads like this: (dose: 5.5 mg/kg/injection, schedule: Q01DX009 (ip), vehicle: Klucel (hydroxypropylcellulose) (HPC)) 118 % of control; (dose: 70.0 mg/kg/injection, schedule: Q04DX003 (ip), vehicle: Klucel (hydroxypropylcellulose) (HPC)) 118 % of control and 120 % of control; (dose: 73.0 mg/kg/injection, schedule: Q04DX003 (ip), vehicle: Klucel (hydroxypropylcellulose) (HPC)) 118 % of control; (dose: 170.0 mg/kg/injection, schedule: Q04DX003 (ip), vehicle: Klucel (hydroxypropylcellulose) (HPC)) 95 % of control; (dose: 255.0 mg/kg/injection, schedule: Q04DX003 (ip), vehicle: Klucel (hydroxypropylcellulose) (HPC)) 108 % of control and 120 % of control.
Turning to `COc1cccc(CCCC(=O)O)c1`, the T/C under setting [1] was 95 % of control and the T/C under setting [2] was 87 % of control.
In the case of `COc1cccc2c1C(=O)c1c(O)c3c(c(O)c1C2=O)C[C@@](O)(C(C)=O)C[C@@H]3OC1CC(N(Cc2ccccc2)Cc2ccccc2)C(O)C(C)O1` (some centres undefined), the T/C was 227 % of control (dose: 37.5 mg/kg/injection, schedule: Q04DX003 (ip), vehicle: water); 100 % of control (dose: 150.0 mg/kg/injection, schedule: Q04DX003 (ip), vehicle: water); 102 % of control (dose: 300.0 mg/kg/injection, schedule: Q04DX003 (ip), vehicle: water).
As to `COc1cccc2c1C(=O)c1c(O)c3c(c(O)c1C2=O)C[C@@](O)(/C(C)=N/NC(=O)c1ccc(N(C)C)cc1)C[C@@H]3OC1CC(N)C(O)C(C)O1` (some centres undefined), the T/C (dose: 0.25 mg/kg/injection, schedule: Q01DX009 (ip), vehicle: water) is 96 % of control; the T/C (dose: 1.0 mg/kg/injection, schedule: Q01DX009 (ip), vehicle: water) was 107 % of control and 110 % of control; the T/C (dose: 2.0 mg/kg/injection, schedule: Q01DX009 (ip), vehicle: water) was 233 % of control and 154 % of control; the T/C (dose: 4.0 mg/kg/injection, schedule: Q01DX009 (ip), vehicle: water) is 179 % of control; the T/C (dose: 8.0 mg/kg/injection, schedule: Q01DX009 (ip), vehicle: water) was 243 % of control.
Turning to `CC(=O)[C@]1(O)Cc2c(O)c3c(c(O)c2[C@@H](OC2CC(N)C(O)C(C)O2)C1)C(=O)c1c(OC(C)C)cccc1C3=O` (some centres undefined), the T/C runs as follows: (dose: 6.25 mg/kg/injection, schedule: Q04DX003 (ip), vehicle: water) 118 % of control; under setting [3], 162 % of control; (dose: 50.0 mg/kg/injection, schedule: Q04DX003 (ip), vehicle: water) 89 % of control.
For `CC(C=C1CCCCC1)C(=O)O` (centres undefined), the T/C was 113 % of control (dose: 100.0 mg/kg/injection, schedule: Q01DX009 (ip), vehicle: saline); 109 % of control (dose: 200.0 mg/kg/injection, schedule: Q01DX009 (ip), vehicle: saline); 118 % of control (dose: 400.0 mg/kg/injection, schedule: Q01DX009 (ip), vehicle: saline).
As to `CNC(=S)N/N=C/C(=O)c1ccco1`, the T/C was 104 % of control (dose: 22.5 mg/kg/injection, schedule: Q01DX009 (ip), vehicle: saline with Tween-80); 98 % of control (dose: 45.0 mg/kg/injection, schedule: Q01DX009 (ip), vehicle: saline with Tween-80); 105 % of control (dose: 90.0 mg/kg/injection, schedule: Q01DX009 (ip), vehicle: saline with Tween-80).
Take `N#CCCN(CCC#N)/N=N\c1nc[nH]c1C(N)=O`: the T/C was 101 % of control under setting [4], 105 % of control under setting [5], 113 % of control under setting [6] and 113 % of control under setting [7].
`CCC/C=C/C=C/C1CC(O)C(O)C(=O)C1CO` (centres undefined): the T/C runs as follows: (dose: 12.5 mg/kg/injection, schedule: Q01DX009 (ip), vehicle: saline with Tween-80) 99 % of control; (dose: 25.0 mg/kg/injection, schedule: Q01DX009 (ip), vehicle: saline with Tween-80) 106 % of control; under setting [4], 97 % of control; under setting [5], 101 % of control.
For the compound `C[n+]1cc2ccccc2c2ccccc21`, the T/C (dose: 12.5 mg/kg/injection, schedule: Q01DX009 (ip), vehicle: water) was 95 % of control and 109 % of control; the T/C under setting [3] was 105 % of control; the T/C (dose: 15.0 mg/kg/injection, schedule: Q01DX009 (ip), vehicle: water) was 108 % of control; the T/C (dose: 25.0 mg/kg/injection, schedule: Q01DX009 (ip), vehicle: water) is 101 % of control and 115 % of control; the T/C (dose: 25.0 mg/kg/injection, schedule: Q04DX003 (ip), vehicle: water) is 114 % of control.
As for `O=C(CCl)N1c2ccccc2Oc2cc3ccccc3cc21`, the T/C runs as follows: under setting [5], 104 % of control; under setting [8], 104 % of control; under setting [6], 90 % of control; under setting [9], 100 % of control; under setting [7], 104 % of control; (dose: 400.0 mg/kg/injection, schedule: Q04DX003 (ip), vehicle: saline with Tween-80) 113 % of control.
Consider `COc1cc(/C=C/c2ccc3ccccc3n2)cc(OC)c1OC`, for which the T/C under setting [8] was 100 % of control.
As to `CCN(CCN)c1cccc(C)c1`, the T/C is, setting by setting: (dose: 25.0 mg/kg/injection, schedule: Q04DX003 (ip), vehicle: saline sonified) 100 % of control; (dose: 50.0 mg/kg/injection, schedule: Q04DX003 (ip), vehicle: saline sonified) 120 % of control; (dose: 100.0 mg/kg/injection, schedule: Q04DX003 (ip), vehicle: saline sonified) 100 % of control.
Turning to `O=C1C(=O)c2ccccc2C([O-])=C1[n+]1ccccc1`, the T/C (dose: 50.0 mg/kg/injection, schedule: Q04DX003 (ip), vehicle: saline with Tween-80) was 109 % of control; the T/C under setting [8] was 95 % of control; the T/C under setting [9] is 90 % of control.
Take `O=C(O)Cc1ccc(N=Nc2c(O)c(C(=O)O)cc3ccccc23)cc1`: the T/C (dose: 100.0 mg/kg/injection, schedule: Q04DX003 (ip), vehicle: Klucel (hydroxypropylcellulose) (HPC)) was 111 % of control; the T/C under setting [1] is 111 % of control; the T/C under setting [2] was 100 % of control.
Turning to `C=CCn1c(=O)n(CC=C)c(=O)n(CC=C)c1=O`, the T/C is 100 % of control (dose: 100.0 mg/kg/injection, schedule: Q04DX003 (ip), vehicle: alcohol); 104 % of control (dose: 200.0 mg/kg/injection, schedule: Q04DX003 (ip), vehicle: alcohol); 109 % of control (dose: 400.0 mg/kg/injection, schedule: Q04DX003 (ip), vehicle: alcohol).

(Values after PubChem BioAssay AID328 (DTP/NCI, 2004).)
